Results on 86 molecules are retold here after a melting point compilation (Tetko et al.; mined from patent text by program, amines drawn as free bases though some values may be those of a salt).

The term melting point denotes the temperature of the solid-liquid transition.

Starred links: 1 amine or outer side, 2 acyl side, 3 side chain; linkers in the order of their positions; H or OH if unused. Residues, ends and D or L forms follow the SMILES beside them. Glutaryl = O=C(CCCC(=O)[*:2])[*:1] A value given as a limit tells only on which side of the number the result lay.

For `COC(=O)CCOc1ccc(C#N)cc1`, the melting point came to 51 °C. `CCOC(Cc1ccc(OCCN2CCOc3ccccc32)cc1)C(=O)NC` (stereo unspecified) had a melting point of 97 to 99 °C. The molecule `CCCc1nc2c(C)cc(-c3nc4ccccc4n3C)cc2n1Cc1ccc(-c2ccccc2NC(=O)C(F)(F)F)cc1` gave a melting point of 115 to 120 °C. `COc1ccc2cc(N3CCN(C4CCC(c5c[nH]c6ccc(F)cc56)CC4)CC3)ccc2c1` (stereo unspecified) showed a melting point of 200 to 203 °C. `COc1ccc(COC(C)(C)C(=O)Nc2c(N)n(Cc3ccc(OC)c(OC4CCCC4)c3)c(=S)[nH]c2=O)cc1` gave a melting point of 172 to 184 °C. With `NC(=S)c1c(Cl)c(-c2cccnc2)n2c1CN(C(=O)Nc1ccc(F)cc1)CC2`, the melting point is 214 to 216 °C.

Take `CC(=O)Oc1c(Cl)nc(-c2ccccc2)nc1Cl`: the melting point is 145 to 147 °C. Turning to `COc1cc(OC)nc(-n2c(SC)nc3ccccc32)n1`, the melting point lay within 135 to 137 °C. In turn, `CCC(O)(C(=O)c1ccccc1)c1ccccc1` (stereo unspecified) came in with a melting point of 62 to 68 °C.

For the molecule `COc1ccc(C(=O)N2CCC(N3CCc4ccccc43)c3ccccc32)cc1OC` (stereo unspecified), the melting point is 121 to 123 °C. `CN1CC(=O)Nc2ccc(C#N)cc2C1=O` yielded a melting point of 256 to 258 °C.

As for `CC(C)(C)c1cc(C=C2CCNC2=O)cc(C(C)(C)C)c1O`, the melting point lay in the range of 216 to 218 °C.

Molecule `CC(Cc1sc2ccc(Cl)cc2c1Cl)=NO` returned a melting point of 133 to 138 °C. In the case of `CCCc1nc2c(N)nc3cc(OCc4ccccc4)ccc3c2n1CC(C)C` it was 206 to 208 °C. On to `COc1ccc(CC(=O)O)cc1C(=O)NCc1ccc(C(F)(F)F)cc1`, for which the melting point lay in the range of 167 to 168 °C. For the molecule `COc1ccc(C(N2CCN(c3ncccn3)CC2)N2CCCC2=O)cc1` (stereo unspecified), the melting point lay in the range of 166 to 170 °C.

The molecule `COC(=O)Cc1nc(-c2ccc(Cl)cc2)oc1-c1ccsc1` displayed a melting point of 127 to 128 °C. Molecule `O=c1cc(-c2cccs2)c2ccccc2[nH]1` had a melting point of 262 to 264 °C.

For `CCOC(=S)c1c(COC)nc2cc(F)c(F)cc2c1O`, the melting point fell in the range of 126 to 129 °C.

`O=c1[nH][nH]c(=O)c2c(O)c3c(Cl)c(Cl)c(Cl)cc3nc12`: the melting point lay within 123 to 124 °C. Molecule `N#Cc1ccc2[nH]nc(-c3ccccc3)c2c1` returned a melting point of 150 to 151 °C. To `CC(C)(C)CC(=O)N1CCC(c2ccc(COc3ccc(S(C)(=O)=O)cc3)nc2)CC1` belongs 140 to 142 °C; to `COc1ccccc1CC(=NCc1cccs1)N1C[C@@H]2C(=O)CCC(c3ccccc3)(c3ccccc3)[C@@H]2C1`, 88 °C; to `CC(C)(C)c1cc(Cn2nc(-c3ccccc3)oc2=S)cc(C(C)(C)C)c1O`, 166 °C. `CNC(=O)CCc1cn(Cc2ccc(C(=O)NS(=O)(=O)c3ccccc3C)cc2OC)c2cc(C(=O)NCC3CCCC3)ccc12` had a melting point of 211 to 212 °C. Turning to `COc1cccc([C@H]2O[C@H](CC(=O)Nc3cc4c(c(C(=O)O)c3)CCCC4)C(=O)N(CC(C)(C)CO)c3ccc(Cl)cc32)c1OC`, the melting point fell in the range of 178 to 179 °C. `CCCN(C(N)=S)c1cccc2ccccc12` yielded a melting point of 170 to 171 °C. The molecule `Cc1cc2nc(S(=O)(=O)CC(F)(F)F)[nH]c2cc1F` came in with a melting point of 164 to 166 °C. As for `O=C(Nc1ccc(C(F)(F)F)cc1)Nc1ccc2c(c1)OC(F)(F)O2`, the melting point fell in the range of 195 to 200 °C. Turning to `COc1ccc(N=C(NC(=O)Nc2ccc(-c3ncn(-c4ccc(C(F)(F)F)cc4)n3)cc2)SCOC(=O)C(C)C)c(C)c1`, the melting point was in the range of 160 to 164 °C.

As for `CS(=O)(=O)Nc1nc(CCCN2CCN(C(c3ccccc3)c3ccccc3)CC2)cs1`, the melting point lay in the range of 181 to 183 °C. `CCCCNC(=O)C(C)(O[Si](C)(C)C(C)(C)C)c1ccc([N+](=O)[O-])cc1` (stereo unspecified) gave a melting point of 49 to 50 °C. In the case of `NS(=O)(=O)c1cccc(-c2cc(-c3nc(-c4ccc(C(F)(F)F)c(OCC(F)(F)F)c4)cc(C(F)(F)F)n3)ccn2)c1` it was 211 °C. In turn, `COc1cc(C(=O)c2c(-c3ccc(OCCN4CCCC4)cc3)sc3ccc(O)cc23)ccc1CN1CCCC1` came in with a melting point of 95 to 99 °C. Take `NS(=O)(=O)c1cc2cnccc2o1`: the melting point was 216 to 218 °C.

`COc1cccc(N2CCC(NC(C)=O)CC2)n1` returned a melting point of 125 to 127 °C.

Molecule `O=c1[nH]c2ccc3c(c2n(Cc2ccccc2)c1=O)CCCN3` came in with a melting point greater than 300 °C.

As to `CCOC(=O)C(=Cc1c(C)cc(C)cc1C)C(=O)CCl`, the melting point amounted to 85 °C. In the case of `CCc1nc(Cl)c(C(=O)NC)n1Cc1ccc2oc(-c3ccccc3N)c(Br)c2c1` it was 68 to 70 °C. The molecule `O=C1C=CC(O)(c2nc3ccccc3s2)C(Sc2ccccc2)C1` (stereo unspecified) had a melting point of 66 °C. To `COc1cc(OC)nc(NC(=O)NS(=O)(=O)c2nc(C)cc3c2C(=O)OC3)n1` belongs 149 to 153 °C; to `CCOc1ccc(S(=O)(=O)N[C@H](CCCN2C(=O)c3ccccc3C2=O)C(=O)O)cc1`, 151 to 152 °C; to `O=c1nc(-c2ccccn2)sc2cccc(F)c12`, 256 to 257 °C.

For the molecule `CC(=O)c1ccc(NCc2cc3c(cc2O)CCCO3)cc1`, the melting point was 177 to 179 °C. With `CC(=O)Nc1nc(/C=C/c2ccc([N+](=O)[O-])cc2)c(-c2ccc(S(C)(=O)=O)cc2)s1`, the melting point was in the range of 294 to 295 °C.

In turn, `CCOCCOc1ccc(COc2cnn(C(C)(C)C)c(=O)c2Cl)cc1` returned a melting point of 82 to 83 °C.

With `Cc1cc(C)cc(Sc2cncc3sc(C(N)=O)cc23)c1`, the melting point was 177 to 179 °C. `O=C(CSCCOc1ccccc1)c1ccc2[nH]c3ncc(Cl)cc3c2c1` gave a melting point of 167 to 168 °C. Molecule `CCOC(=O)c1cn(CCCl)c2nc(-c3ccncc3)c(F)cc2c1=O` displayed a melting point of 192 to 194 °C. Molecule `Clc1cccc2c3c([nH]c12)-c1ccccc1C3` came in with a melting point of 139 °C. `CCc1c(Cl)cnn(C(C)(C)C)c1=O` registered a melting point of 61.5 to 62.5 °C.

`CCN(CC(OC)OC)C(=O)Nc1ccc(C(O)(C(F)(F)F)C(F)(F)F)cc1` yielded a melting point of 138 to 140 °C. `COc1cc(C(=O)O)ccc1Cn1ncc2ccc(NC(=O)CC3CCCC3)cc21` displayed a melting point of 254 to 256 °C. To `Cn1nccc1NC(=O)N1CCN(c2nc(-c3ccccc3F)cs2)CC1` belongs 156 to 157 °C. For the molecule `O=C(c1ccccn1)c1cnn2c(-c3cccc(C(F)(F)F)c3)ccnc12`, the melting point is 166 to 167 °C. Molecule `CCCCOc1cc(/C=C(\OCC)C(=O)O)ccc1OCCc1ccc(OS(=O)(=O)CCCC)c(Cl)c1` registered a melting point of 80 °C.

Molecule `O=c1[nH]c2ncccc2c(=O)n1CCCCCCn1c(=O)[nH]c2ncccc2c1=O` yielded a melting point of 324 to 328 °C. In the case of `CCC(C)(C)Nc1c(NCc2cccc(Cl)c2C)c(=O)c1=O`, the melting point was 236 to 237 °C. Turning to `COC(=O)c1ccc2cc(-c3ccc(OC)c(C45CC6CC(CC(C6)C4)C5)c3)ccc2c1`, the melting point lay within 221 to 227 °C. With `CC(C)(C)CC(=O)c1ccc(OCC(=O)O)c(Cl)c1Cl`, the melting point lay within 145 to 146 °C. Molecule `O=C1c2ccccc2C(=O)c2c1nc1c(Cl)cccn21` gave a melting point greater than 300 °C.

Molecule `Cc1nc(-c2ccc(C=CC3CN4CCC3CC4)cc2)no1` (stereo unspecified) displayed a melting point of 93 to 97 °C. Molecule `O=C1OCCC12Sc1ccc(S(=O)(=O)N3CCCCC3)cc1C2=O` (stereo unspecified) registered a melting point of 159 to 161 °C.

With `COC1=C(OC)C(=O)C(c2cc(C(C)(C)C)c(O)c(C(C)(C)C)c2)=C(C)C1=O`, the melting point lay in the range of 147 to 148 °C. To `CCOC(=O)C(=O)OCc1ccc(OC)cc1` belongs 44 to 45 °C. In the case of `C=CCOC(=O)NC(=O)C(C)(c1ccccc1)c1ccccc1` it was 89 °C; in that of `O=C1CC(ON(Cc2ccccc2)Cc2ccccc2)C(=O)N1c1ccccc1` (stereo unspecified), 91 to 93 °C; in that of `O=[N+]([O-])c1cc(Cl)cnc1N1CCN(C/C=C/c2ccc(C(F)(F)F)cc2)CC1`, 129 to 132 °C. `CN(C)C(=N)CSc1nnc(S)s1` returned a melting point of 95 to 97 °C.

In the case of `CCn1nc(OCC(=O)c2ccc(F)cc2)c(-c2ccc(F)cc2)c1-c1ccc(OC)cc1`, the melting point lay within 170 to 171 °C.

As to `CCNC(=O)C1CCCN1C(=O)C(C)NC(=O)C(C)NC(=O)CCCC(=O)O` (stereo not drawn) (Glutaryl-Ala-Ala-Pro-NHEt; configuration not given here), the melting point was 154 to 156 °C. In turn, `CC[C@H](C1CC1)n1cc(Cl)nc(N2CCc3cc(Cl)cc(Cl)c32)c1=O` gave a melting point of 157 to 159 °C. In the case of `Cc1ccccc1C(=O)Nc1ccc2oc3c(c2c1)CCCC3` it was 209 to 210 °C; in that of `CN1C(C)(C)CC(O[Si](c2ccccc2)(c2ccccc2)c2ccccc2)CC1(C)C`, 109 to 110 °C; in that of `NC(=O)c1ccc(-c2cnc3[nH]c(=O)n(CCC4CCOCC4)c3n2)cc1`, 233 to 236 °C. For the molecule `Cc1cc(C)c(-c2cn(C)c3nc(N)[nH]c(=O)c23)c(C)c1`, the melting point lay in the range of 184 to 186 °C. The molecule `Fc1ccc2nc(CBr)ccc2c1` yielded a melting point of 90 to 92 °C. Turning to `Cc1ccccc1CCNC(=O)c1ccc(Cl)cc1`, the melting point lay in the range of 95 to 96 °C. Molecule `CCn1nc(C(F)(F)F)c(CS(=O)(=O)C2=NOC(C)(C)C2)c1OC(F)F` registered a melting point of 98 to 100 °C. As for `CC(C)(NC(=O)c1nnc2ccc(NCCCN3CCC(OC(c4ccccc4)c4ccccc4)CC3)nn12)C(=O)O`, the melting point is 191 to 193 °C. To `C[C@H]1Cn2c(=O)[nH]c3cccc(c32)CN1` belongs 190 °C; to `Fc1ccc(-c2cccc(F)n2)cc1`, 34 °C. `O=c1c2c(CCc3ccccc3[N+](=O)[O-])n[nH]c2c2cccnc2n1-c1ccccc1` showed a melting point of 333 to 335 °C. The molecule `Cn1c(N)c(CN2CCN(c3cccc4c3OCCO4)CC2)c(=O)n1-c1ccccc1` showed a melting point of 222 to 224 °C. Consider `N#CC12CCN(CC1)CC2Cc1ccccc1` (stereo unspecified), for which the melting point fell in the range of 82.5 to 84 °C. In turn, `NS(=O)(=O)c1cccc(C2(O)CCCC2)c1` yielded a melting point of 155 °C.
